Experimental data taken from US20090232838A1, “Ligands of melanocortin receptors” (priority 2005, published 2009).

Tests used:
hMC1-R [1] = biological target: T1, hMC1-R (Homo sapiens, UniProt Q01726); assay: Radioligand binding assay, hMC1-R
T1 construct: expressed in transfected cells; host or cells: CHO-K1
Method: (§1) Cellular membranes used for the in vitro receptor binding assays were obtained from transgenic CHO-K1 cells stably expressing hMC-R receptor subtypes 1, 3, 4 or 5. […] The pellets were resuspended in the same buffer and centrifuged at 50,000 g for 10 minutes at approximately 4° C. The washed pellets containing the cellular membranes were stored at approximately −80° C.
(§2) Filters were washed three times with 50 mM Tris-HCl at p-H 7.4 at a temperature of approximately 0-4° C. and then assayed for radioactivity using a Packard Topcount® scintillation counter. Binding data were analyzed by computer-assisted non-linear regression analysis (XL fit; IDBS).

hMC3-R [2] = biological target: T2, hMC3-R (Homo sapiens, UniProt P41968); assay: Radioligand binding assay, hMC3-R
T2 construct: expressed in transfected cells; host or cells: CHO-K1
Method: as §1, §2

hMC4-R [3] = biological target: T3, hMC4-R (Homo sapiens, UniProt P32245); assay: Radioligand binding assay, hMC4-R
T3 construct: expressed in transfected cells; host or cells: CHO-K1
Method: as §1, §2

hMC5-R [4] = biological target: T4, hMC5-R (Homo sapiens, UniProt P33032); assay: Radioligand binding assay, hMC5-R
T4 construct: expressed in transfected cells; host or cells: CHO-K1
Method: as §1, §2

hMC1-R [5] = biological target: T1, hMC1-R; assay: cyclic AMP bioassay, hMC1-R; assay type: cell-based
Method: (§3) Intracellular cyclic AMP (cAMP) levels were determined by an electrochemiluminescence (ECL) assay (Meso Scale Discovery®, Gaithersburg, Md.; referred to hereinafter as MSD). […] Transgenic CHO-K1 cells stably expressing hMC receptor subtypes 1, 3, 4 or 5 were dispensed at a density of approximately 7,000 cells/well in 384-well Multi-Arrays plates (MSD) containing integrated carbon electrodes and coated with anti-CAMP antibody. Increasing concentrations of the test compounds were added and the cells were incubated for approximately 40 minutes at approximately 37° C. […] At the end of the second incubation period read buffer (Tris-buffered solution containing an ECL co-reactant and Triton X-100 at ph 7.8) was added and the cAMP levels in the cell lysates were immediately determined by ECL detection with a Sector Imager 6000 Reader® (MSD). Data were analyzed using a computer-assisted non-linear regression analysis (XL fit; IDBS) and reported as either an EC50 value or a Kb value.
(§4) The Kb value reflects the potency of an antagonist and is determined by Schild analysis. In brief, concentration-response curves of an agonist are carried out in the presence of increasing concentrations of an antagonist. […] It is calculated by extrapolating the line on a Schild plot to zero on the y-axis.

hMC3-R [6] = biological target: T2, hMC3-R; assay: cyclic AMP bioassay, hMC3-R; assay type: cell-based
hMC4-R [7] = biological target: T3, hMC4-R; assay: cyclic AMP bioassay, hMC4-R; assay type: cell-based
hMC5-R [8] = biological target: T4, hMC5-R; assay: cyclic AMP bioassay, hMC5-R; assay type: cell-based
Method: as §3, §4

T1 sequence (Q01726 whole entry): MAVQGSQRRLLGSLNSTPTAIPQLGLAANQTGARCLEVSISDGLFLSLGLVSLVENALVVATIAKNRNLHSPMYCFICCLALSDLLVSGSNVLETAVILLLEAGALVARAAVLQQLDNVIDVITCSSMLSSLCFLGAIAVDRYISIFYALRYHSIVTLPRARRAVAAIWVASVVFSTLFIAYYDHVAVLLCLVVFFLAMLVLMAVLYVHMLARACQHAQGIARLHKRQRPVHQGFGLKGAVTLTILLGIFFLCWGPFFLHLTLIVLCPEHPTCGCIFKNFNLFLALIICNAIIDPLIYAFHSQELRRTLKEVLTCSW
T4 sequence (P33032 whole entry): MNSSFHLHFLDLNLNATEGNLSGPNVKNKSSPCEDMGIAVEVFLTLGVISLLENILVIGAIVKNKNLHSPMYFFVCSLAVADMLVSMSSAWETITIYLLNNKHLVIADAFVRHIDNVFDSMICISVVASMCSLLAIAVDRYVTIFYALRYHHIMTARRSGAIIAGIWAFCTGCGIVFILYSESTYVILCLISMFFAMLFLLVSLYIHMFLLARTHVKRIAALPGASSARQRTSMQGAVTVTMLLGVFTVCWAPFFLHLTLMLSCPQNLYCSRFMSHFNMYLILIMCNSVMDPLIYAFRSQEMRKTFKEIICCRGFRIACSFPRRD
T3 sequence (P32245 whole entry): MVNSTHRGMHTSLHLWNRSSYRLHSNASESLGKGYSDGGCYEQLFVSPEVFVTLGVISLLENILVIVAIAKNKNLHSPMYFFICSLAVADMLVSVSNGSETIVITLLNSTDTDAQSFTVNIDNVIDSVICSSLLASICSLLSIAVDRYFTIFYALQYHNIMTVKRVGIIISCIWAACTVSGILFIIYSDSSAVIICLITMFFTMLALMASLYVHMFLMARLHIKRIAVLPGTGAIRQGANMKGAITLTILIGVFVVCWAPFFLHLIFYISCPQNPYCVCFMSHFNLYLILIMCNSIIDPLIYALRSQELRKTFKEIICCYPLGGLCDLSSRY
T2 sequence (P41968 whole entry): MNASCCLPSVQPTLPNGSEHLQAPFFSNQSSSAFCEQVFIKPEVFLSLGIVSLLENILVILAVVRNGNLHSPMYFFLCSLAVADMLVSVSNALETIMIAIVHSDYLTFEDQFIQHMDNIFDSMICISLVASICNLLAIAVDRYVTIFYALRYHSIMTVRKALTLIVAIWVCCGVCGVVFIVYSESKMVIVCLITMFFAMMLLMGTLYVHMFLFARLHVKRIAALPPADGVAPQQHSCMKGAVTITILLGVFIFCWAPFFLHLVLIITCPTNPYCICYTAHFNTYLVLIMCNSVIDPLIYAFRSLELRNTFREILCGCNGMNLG

| SMILES | Ki (hMC1-R [1]) | Ki (hMC3-R [2]) | Ki (hMC4-R [3]) | Ki (hMC5-R [4]) | EC50 (hMC1-R [5]) | EC50 (hMC3-R [6]) | EC50 (hMC4-R [7]) | EC50 (hMC5-R [8]) | Kb (hMC3-R [6]) | Kb (hMC4-R [7]) |
| --- | --- | --- | --- | --- | --- | --- | --- | --- | --- | --- |
| CCCC[C@H](NC(C)=O)C(=O)N[C@H]1CSSC[C@@H](C(=O)NCCC(=O)N[C@@H](CCCNC(=N)N)C(=O)N[C@@H](CCCNC(=N)N)C(=O)N[C@@H](CCCCN)C(=O)N[C@@H](CCCNC(=N)N)C(=O)N[C@@H](CCCNC(=N)N)C(=O)N[C@@H](CCC(N)=O)C(=O)N[C@@H](CCCNC(=N)N)C(=O)N[C@@H](CCCNC(=N)N)C(=O)N[C@@H](CCCNC(=N)N)C(N)=O)NC(=O)[C@H](Cc2c[nH]c3ccccc23)NC(=O)[C@H](CCCNC(=N)N)NC(=O)[C@@H](Cc2ccccc2)NC(=O)[C@H](Cc2c[nH]cn2)NC(=O)[C@@H](C)NC1=O | 0.212 nM | 1.23 nM | 0.484 nM | 58.5 nM | 1.86 nM | 1.39 nM | 0.367 nM | 165 nM |  |  |
| CCCC[C@H](NC(C)=O)C(=O)N[C@H]1CSSC[C@@H](C(=O)NCCC(=O)N[C@@H](CCCNC(=N)N)C(=O)N[C@@H](CCCCN)C(=O)N[C@@H](CCCNC(=N)N)C(=O)N[C@@H](CCCNC(=N)N)C(=O)N[C@@H](CCCNC(=N)N)C(=O)N[C@@H](CCC(N)=O)C(=O)N[C@@H](CCCNC(=N)N)C(=O)N[C@@H](CCCNC(=N)N)C(=O)N[C@@H](CCCNC(=N)N)C(N)=O)NC(=O)[C@H](Cc2c[nH]c3ccccc23)NC(=O)[C@H](CCCNC(=N)N)NC(=O)[C@@H](Cc2ccccc2)NC(=O)[C@H](Cc2c[nH]cn2)NC(=O)[C@@H](C)NC1=O | 0.778 nM | 1.22 nM | 0.468 nM | 47 nM | 2.06 nM | 1.61 nM | 0.394 nM | 199 nM |  |  |
| CC(=O)N[C@H]1CSSC[C@@H](C(=O)N2CCC[C@H]2C(=O)N2CCC[C@H]2C(=O)N[C@@H](CCCCN)C(=O)N[C@@H](CC(=O)O)C(=O)NCCC(=O)N[C@@H](Cc2ccc(O)cc2)C(=O)NCC(=O)N[C@@H](CCCNC(=N)N)C(=O)N[C@@H](CCCNC(=N)N)C(=O)N[C@@H](CCCCN)C(=O)N[C@@H](CCCNC(=N)N)C(=O)N[C@@H](CCCNC(=N)N)C(=O)N[C@@H](CCC(N)=O)C(=O)N[C@@H](CCCNC(=N)N)C(=O)N[C@@H](CCCNC(=N)N)C(=O)N[C@@H](CCCNC(=N)N)C(N)=O)NC(=O)[C@H](C)NC(=O)[C@H](Cc2ccc3ccccc3c2)NC(=O)[C@H](CCCNC(=N)N)NC(=O)[C@@H](Cc2ccc3ccccc3c2)NC(=O)[C@H](Cc2c[nH]cn2)NC(=O)[C@H](CCC(=O)O)NC1=O |  | 1.12 nM |  | 15.3 nM | 58.7 nM |  |  | 460 nM | 39.3 nM | 10.3 nM |
| CC(=O)N[C@H]1CSSC[C@@H](C(=O)N2CCC[C@H]2C(=O)N2CCC[C@H]2C(=O)N[C@@H](CCCCN)C(=O)N[C@@H](CC(=O)O)C(=O)NCCC(=O)N[C@@H](CCCNC(=N)N)C(=O)N[C@@H](CCCNC(=N)N)C(=O)N[C@@H](CCCNC(=N)N)C(=O)N[C@@H](CCCNC(=N)N)C(=O)N[C@@H](CCCNC(=N)N)C(=O)N[C@@H](CCCNC(=N)N)C(=O)N[C@@H](CCC(N)=O)C(=O)N[C@@H](CCCNC(=N)N)C(=O)N[C@@H](CCCNC(=N)N)C(=O)N[C@@H](CCCNC(=N)N)C(N)=O)NC(=O)[C@H](C)NC(=O)[C@H](Cc2ccc3ccccc3c2)NC(=O)[C@H](CCCNC(=N)N)NC(=O)[C@@H](Cc2ccc3ccccc3c2)NC(=O)[C@H](Cc2c[nH]cn2)NC(=O)[C@H](CCC(=O)O)NC1=O | 3.65 nM |  |  |  | 29.1 nM |  |  |  | 13.6 nM | 13.4 nM |
| CC(=O)N[C@H]1CSSC[C@@H](C(=O)N2CCC[C@H]2C(=O)N2CCC[C@H]2C(=O)N[C@@H](CCCCN)C(=O)N[C@@H](CC(=O)O)C(=O)NCCC(=O)NCC(=O)N[C@@H](CCCNC(=N)N)C(=O)N[C@@H](CCCCN)C(=O)N[C@@H](CCCNC(=N)N)C(=O)N[C@@H](CCCNC(=N)N)C(=O)N[C@@H](CCCNC(=N)N)C(=O)N[C@@H](CCC(N)=O)C(=O)N[C@@H](CCCNC(=N)N)C(=O)N[C@@H](CCCNC(=N)N)C(=O)N[C@@H](CCCNC(=N)N)C(N)=O)NC(=O)[C@H](C)NC(=O)[C@H](Cc2ccc3ccccc3c2)NC(=O)[C@H](CCCNC(=N)N)NC(=O)[C@@H](Cc2ccc3ccccc3c2)NC(=O)[C@H](Cc2c[nH]cn2)NC(=O)[C@H](CCC(=O)O)NC1=O | 5.66 nM |  |  |  | 309 nM |  |  | 570 nM | 22.8 nM | 17.1 nM |
